Experiment [1] concerns the target T1, SUMO-activating enzyme (Homo sapiens, UniProt Q9UBT2). Nature of the experiment: SUMOylation inhibitor hit validation, confirmation, SUMOylation inhibitor project, biochemical, AlphaScreen (AID 2018). In kind it is functional. A general note: Bead proximity is the source of the signal in Alpha formats.
In experiment [2] the target is Large T antigen (Simian virus 40, UniProt P03070). Format: functional, Betapolyomavirus macacae.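 Further: Confirmatory-stage PubChem screen for compounds that inhibit SV40 T antigen.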
Large T antigen, sequence (P03070 whole entry): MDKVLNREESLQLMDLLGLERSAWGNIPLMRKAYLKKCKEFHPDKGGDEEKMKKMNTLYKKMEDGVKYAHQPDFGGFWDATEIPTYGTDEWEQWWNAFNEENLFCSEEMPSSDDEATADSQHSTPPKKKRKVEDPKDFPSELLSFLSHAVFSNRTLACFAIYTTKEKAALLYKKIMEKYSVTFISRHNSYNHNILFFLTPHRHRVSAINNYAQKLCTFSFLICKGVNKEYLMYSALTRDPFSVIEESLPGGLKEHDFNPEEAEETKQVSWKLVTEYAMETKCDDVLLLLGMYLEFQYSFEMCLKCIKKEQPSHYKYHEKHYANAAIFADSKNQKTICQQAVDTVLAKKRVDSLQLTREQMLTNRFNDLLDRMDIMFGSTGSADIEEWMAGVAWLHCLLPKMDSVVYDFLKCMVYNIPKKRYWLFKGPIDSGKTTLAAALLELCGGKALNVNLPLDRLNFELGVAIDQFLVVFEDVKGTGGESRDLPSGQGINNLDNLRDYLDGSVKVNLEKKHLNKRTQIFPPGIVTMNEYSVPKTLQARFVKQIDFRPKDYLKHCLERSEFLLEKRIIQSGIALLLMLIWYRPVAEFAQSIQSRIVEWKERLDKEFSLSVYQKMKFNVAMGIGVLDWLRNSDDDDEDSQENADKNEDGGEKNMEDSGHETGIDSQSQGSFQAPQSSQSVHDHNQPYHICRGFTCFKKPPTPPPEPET
The target of experiment [3] is T1, SUMO-activating enzyme. Nature of the experiment: inhibitors of in vitro SUMOylation cascade, primary screen, biochemical, HTRF, uHTS (AID 2006). In kind it is protein-complex assay.
Experiment [4] concerns the target Intestinal-type alkaline phosphatase (Homo sapiens, UniProt P09923). Briefly: activation of human intestinal alkaline phosphatase – biochemical, dose response (AID 488873). Format: functional.
Experiment [5] deals with Intestinal-type alkaline phosphatase (Mus musculus, UniProt P24822). Briefly: mouse intestinal alkaline phosphatase activators, dose response, biochemical, luminescence, uHTS hits (AID 488783). Format: functional.
Intestinal-type alkaline phosphatase (Mus musculus, UniProt P24822), sequence (P24822 whole entry): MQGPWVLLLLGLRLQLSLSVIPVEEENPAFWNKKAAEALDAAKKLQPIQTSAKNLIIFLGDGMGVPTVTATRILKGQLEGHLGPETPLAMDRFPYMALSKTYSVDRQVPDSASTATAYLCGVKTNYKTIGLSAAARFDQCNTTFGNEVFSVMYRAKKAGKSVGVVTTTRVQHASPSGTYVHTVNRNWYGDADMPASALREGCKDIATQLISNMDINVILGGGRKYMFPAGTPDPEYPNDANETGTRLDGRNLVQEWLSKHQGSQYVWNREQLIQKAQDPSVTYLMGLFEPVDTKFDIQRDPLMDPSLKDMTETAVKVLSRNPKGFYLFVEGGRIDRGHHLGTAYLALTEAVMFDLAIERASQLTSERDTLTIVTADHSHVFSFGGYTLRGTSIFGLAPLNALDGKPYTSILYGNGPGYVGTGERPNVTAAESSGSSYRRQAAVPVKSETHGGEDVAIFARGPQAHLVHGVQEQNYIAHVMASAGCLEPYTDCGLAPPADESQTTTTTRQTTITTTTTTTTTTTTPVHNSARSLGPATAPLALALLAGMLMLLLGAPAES
Experiment [6] deals with T2, Alkaline phosphatase, tissue-nonspecific isozyme (Homo sapiens, UniProt P05186).
T2 sequence (P05186 whole entry): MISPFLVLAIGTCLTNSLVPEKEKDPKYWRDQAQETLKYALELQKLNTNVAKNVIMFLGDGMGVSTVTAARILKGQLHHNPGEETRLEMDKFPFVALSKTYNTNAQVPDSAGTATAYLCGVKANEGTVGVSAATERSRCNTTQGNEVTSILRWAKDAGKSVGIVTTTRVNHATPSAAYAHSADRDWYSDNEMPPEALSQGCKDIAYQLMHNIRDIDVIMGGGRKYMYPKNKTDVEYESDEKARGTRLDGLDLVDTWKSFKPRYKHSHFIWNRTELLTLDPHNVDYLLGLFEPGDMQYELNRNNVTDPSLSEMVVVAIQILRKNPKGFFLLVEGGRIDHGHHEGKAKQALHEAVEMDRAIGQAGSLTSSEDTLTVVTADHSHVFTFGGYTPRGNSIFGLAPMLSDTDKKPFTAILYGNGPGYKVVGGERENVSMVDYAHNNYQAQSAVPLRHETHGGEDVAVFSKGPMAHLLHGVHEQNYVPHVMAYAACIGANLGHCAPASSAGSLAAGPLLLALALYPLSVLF
Briefly: TNAP enzyme activators, dose response, selectivity assay for mouse IAP activator project, biochemical, TNAP isozyme, mouse IAP uHTS hits (AID 488880). In kind it is functional.

For experiment [7], the target named is T3, Kappa-type opioid receptor (Homo sapiens, UniProt P41145). Nature of the experiment: KOR agonist analogs, arrestin-GFP redistribution, SAR follow-up, imaging, image-based, set 3 (AID 488833). Format: functional.
T3 sequence (P41145 whole entry): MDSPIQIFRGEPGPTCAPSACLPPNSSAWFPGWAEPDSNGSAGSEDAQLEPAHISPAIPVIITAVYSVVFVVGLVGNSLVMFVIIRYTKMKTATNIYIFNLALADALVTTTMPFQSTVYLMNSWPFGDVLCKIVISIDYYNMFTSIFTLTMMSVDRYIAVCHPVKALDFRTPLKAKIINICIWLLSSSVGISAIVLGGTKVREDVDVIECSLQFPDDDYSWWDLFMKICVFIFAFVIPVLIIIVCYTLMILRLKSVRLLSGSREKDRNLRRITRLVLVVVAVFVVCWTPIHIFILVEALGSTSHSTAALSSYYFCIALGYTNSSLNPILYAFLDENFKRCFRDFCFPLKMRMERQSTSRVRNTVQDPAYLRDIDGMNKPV
Experiment [8] has as its target Mu-type opioid receptor (Homo sapiens, UniProt P35372). Nature of the experiment: SAR Analysis of Agonists of the MOR Receptor using an Image-Based Assay - Set 3. [Related pubchem assays (depositor defined):AID1777, AID1785, AID1786, AID1966, AID2133, AID2136, AID2284, AID2285, AID2352]. Format: functional.
Experiment [9] concerns the target Delta-type opioid receptor (Homo sapiens, UniProt P41143). Nature of the experiment: SAR Analysis of Agonists of the DOR Receptor using an Image-Based Assay - Set 3. [Related pubchem assays (depositor defined):AID1777, AID1786]. Format: functional.
Experiment [10] has as its target T3, Kappa-type opioid receptor. Nature of the experiment: SAR analysis of small molecule agonists of the kappa opioid receptor via a luminescent beta-arrestin assay - Set 3. [Related pubchem assays (depositor defined):AID1777, AID1785, AID1786, AID1966, AID2133, AID2136, AID2284, AID2500]. In kind it is functional.
The target in experiment [11] is T4, Tyrosine-protein phosphatase non-receptor type 22 (Homo sapiens, UniProt Q9Y2R2).
T4 sequence (Q9Y2R2 whole entry): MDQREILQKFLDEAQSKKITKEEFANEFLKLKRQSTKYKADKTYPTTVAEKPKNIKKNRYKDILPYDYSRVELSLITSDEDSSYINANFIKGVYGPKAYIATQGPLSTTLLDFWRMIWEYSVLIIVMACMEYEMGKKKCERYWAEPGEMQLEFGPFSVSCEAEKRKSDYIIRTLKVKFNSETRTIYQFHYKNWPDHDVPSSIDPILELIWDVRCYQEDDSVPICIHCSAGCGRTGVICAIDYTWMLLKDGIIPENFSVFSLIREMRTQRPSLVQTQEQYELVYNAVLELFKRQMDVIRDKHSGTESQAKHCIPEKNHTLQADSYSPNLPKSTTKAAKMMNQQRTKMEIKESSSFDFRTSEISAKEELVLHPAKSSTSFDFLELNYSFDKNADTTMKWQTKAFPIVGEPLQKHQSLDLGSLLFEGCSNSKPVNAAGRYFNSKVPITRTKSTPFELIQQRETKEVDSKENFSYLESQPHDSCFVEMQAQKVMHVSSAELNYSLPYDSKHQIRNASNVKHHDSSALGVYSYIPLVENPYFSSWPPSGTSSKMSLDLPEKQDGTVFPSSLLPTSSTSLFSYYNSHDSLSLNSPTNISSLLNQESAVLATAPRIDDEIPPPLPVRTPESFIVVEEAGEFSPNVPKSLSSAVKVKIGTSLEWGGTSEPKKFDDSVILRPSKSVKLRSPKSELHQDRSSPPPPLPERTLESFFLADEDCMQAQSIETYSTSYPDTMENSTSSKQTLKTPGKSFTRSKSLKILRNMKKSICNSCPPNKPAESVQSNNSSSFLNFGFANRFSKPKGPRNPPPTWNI
Nature of the experiment: SAR LYP1 Fluorescent Assay using pCAP substrate for In Vitro dose response studies - Set 2. [Related pubchem assays (depositor defined):AID1779, AID1784, AID2135, AID449727]. Format: functional.

Experiment [12] has as its target Tyrosine-protein phosphatase non-receptor type 12 (Homo sapiens, UniProt Q05209). Nature of the experiment: SAR Selectivity Analysis of small molecule inhibitors of PEST using pCAP in a fluorescence assay. [Related pubchem assays (depositor defined):AID1779, AID1784, AID2135]. Format: functional.
The target in experiment [13] is T4, Tyrosine-protein phosphatase non-receptor type 22. Nature of the experiment: SAR LYP1 Fluorescent Assay using OMFP substrate for In Vitro dose response studies - Set 3. [Related pubchem assays (depositor defined):AID1779, AID1784, AID2140, AID2686]. Format: functional.
In experiment [14] the target is T5, Tyrosine-protein phosphatase non-receptor type 7 (Homo sapiens, UniProt P35236).
T5 sequence (P35236 whole entry): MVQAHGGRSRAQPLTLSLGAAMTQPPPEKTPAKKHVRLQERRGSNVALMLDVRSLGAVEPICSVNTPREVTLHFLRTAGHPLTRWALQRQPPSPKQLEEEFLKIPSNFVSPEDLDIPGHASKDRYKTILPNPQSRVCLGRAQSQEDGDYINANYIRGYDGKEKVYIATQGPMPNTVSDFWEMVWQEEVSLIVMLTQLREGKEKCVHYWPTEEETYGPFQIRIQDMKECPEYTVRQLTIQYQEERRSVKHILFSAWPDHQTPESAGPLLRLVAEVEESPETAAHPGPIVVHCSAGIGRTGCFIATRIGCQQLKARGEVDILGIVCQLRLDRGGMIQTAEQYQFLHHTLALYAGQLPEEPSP
Nature of the experiment: HePTP (PTPN7) phosphatase inhibitor potency, SAR follow-up, biochemical, set 2 (AID 449736). In kind it is functional.

Experiment [15] deals with T4, Tyrosine-protein phosphatase non-receptor type 22. Nature of the experiment: LYP (PTPN22) phosphatase inhibitor potency, SAR follow-up, biochemical, pCAP fluorogenic substrate, fluorescence, set 3 (AID 449727). In kind it is functional.
Experiment [16] has the same target. Nature of the experiment: PubChem AID 2135.
The target is the same in experiment [17]. Nature of the experiment: PubChem AID 2140.
Experiment [18] has the same target. Briefly: SAR LYP1 Fluorescent Assay using OMFP substrate for In Vitro dose response studies - Set 2. [Related pubchem assays (depositor defined):AID1779, AID1784, AID2140, AID449726, AID488869]. In kind it is functional.

Active and inactive are the calls of the source. A value given as a limit tells only on which side of the number the result lay.

T1 sequence (Q9UBE0 whole entry): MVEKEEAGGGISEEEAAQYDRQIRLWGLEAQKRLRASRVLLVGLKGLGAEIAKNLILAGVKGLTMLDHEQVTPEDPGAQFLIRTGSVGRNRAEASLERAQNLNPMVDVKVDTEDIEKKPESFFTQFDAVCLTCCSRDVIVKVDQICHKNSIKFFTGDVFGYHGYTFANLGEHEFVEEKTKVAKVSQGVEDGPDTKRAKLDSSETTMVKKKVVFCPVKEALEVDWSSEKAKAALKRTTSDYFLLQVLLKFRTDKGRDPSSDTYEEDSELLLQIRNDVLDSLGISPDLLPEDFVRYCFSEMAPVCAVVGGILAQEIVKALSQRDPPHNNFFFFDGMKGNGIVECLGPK
T1 sequence (Q9UBT2 whole entry): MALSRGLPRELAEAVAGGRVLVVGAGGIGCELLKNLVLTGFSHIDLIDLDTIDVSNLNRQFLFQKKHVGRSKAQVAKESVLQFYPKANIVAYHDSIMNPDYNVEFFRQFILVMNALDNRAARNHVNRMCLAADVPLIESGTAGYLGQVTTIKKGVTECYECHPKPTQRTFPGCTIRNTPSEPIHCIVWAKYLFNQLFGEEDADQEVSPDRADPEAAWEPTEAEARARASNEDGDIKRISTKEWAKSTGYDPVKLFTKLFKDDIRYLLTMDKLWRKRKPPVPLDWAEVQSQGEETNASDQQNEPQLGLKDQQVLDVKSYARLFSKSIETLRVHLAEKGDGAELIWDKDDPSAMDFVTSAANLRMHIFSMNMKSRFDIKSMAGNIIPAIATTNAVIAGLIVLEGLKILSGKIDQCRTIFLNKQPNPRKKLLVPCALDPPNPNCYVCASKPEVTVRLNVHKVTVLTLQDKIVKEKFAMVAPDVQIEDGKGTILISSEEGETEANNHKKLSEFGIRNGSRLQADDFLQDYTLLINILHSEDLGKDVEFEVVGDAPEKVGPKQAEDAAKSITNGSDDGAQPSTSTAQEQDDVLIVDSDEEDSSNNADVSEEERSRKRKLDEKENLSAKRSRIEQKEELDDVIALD
Intestinal-type alkaline phosphatase (Homo sapiens, UniProt P09923), sequence (P09923 whole entry): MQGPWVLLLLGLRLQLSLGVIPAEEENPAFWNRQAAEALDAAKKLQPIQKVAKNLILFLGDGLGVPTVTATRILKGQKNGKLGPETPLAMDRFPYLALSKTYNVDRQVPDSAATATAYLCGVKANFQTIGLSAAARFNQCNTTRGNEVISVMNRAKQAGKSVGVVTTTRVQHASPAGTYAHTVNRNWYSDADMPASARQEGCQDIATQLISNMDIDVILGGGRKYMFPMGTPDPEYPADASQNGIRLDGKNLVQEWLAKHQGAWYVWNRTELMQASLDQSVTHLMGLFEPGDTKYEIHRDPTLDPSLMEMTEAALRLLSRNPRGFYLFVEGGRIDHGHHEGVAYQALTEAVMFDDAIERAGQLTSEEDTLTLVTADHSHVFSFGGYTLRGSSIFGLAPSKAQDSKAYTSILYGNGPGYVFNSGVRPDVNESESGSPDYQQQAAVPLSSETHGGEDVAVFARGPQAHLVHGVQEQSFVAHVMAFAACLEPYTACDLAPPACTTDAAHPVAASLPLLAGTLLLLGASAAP
Delta-type opioid receptor, sequence (P41143 whole entry): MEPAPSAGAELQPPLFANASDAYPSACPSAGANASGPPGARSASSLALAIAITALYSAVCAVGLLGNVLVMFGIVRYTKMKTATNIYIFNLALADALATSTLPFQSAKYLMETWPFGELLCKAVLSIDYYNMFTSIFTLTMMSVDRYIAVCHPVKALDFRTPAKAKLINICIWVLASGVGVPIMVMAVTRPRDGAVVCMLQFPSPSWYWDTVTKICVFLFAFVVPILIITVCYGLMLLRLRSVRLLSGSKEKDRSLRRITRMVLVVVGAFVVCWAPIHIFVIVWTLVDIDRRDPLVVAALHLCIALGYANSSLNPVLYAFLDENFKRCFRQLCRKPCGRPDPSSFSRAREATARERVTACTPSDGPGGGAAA
Tyrosine-protein phosphatase non-receptor type 12, sequence (Q05209 whole entry): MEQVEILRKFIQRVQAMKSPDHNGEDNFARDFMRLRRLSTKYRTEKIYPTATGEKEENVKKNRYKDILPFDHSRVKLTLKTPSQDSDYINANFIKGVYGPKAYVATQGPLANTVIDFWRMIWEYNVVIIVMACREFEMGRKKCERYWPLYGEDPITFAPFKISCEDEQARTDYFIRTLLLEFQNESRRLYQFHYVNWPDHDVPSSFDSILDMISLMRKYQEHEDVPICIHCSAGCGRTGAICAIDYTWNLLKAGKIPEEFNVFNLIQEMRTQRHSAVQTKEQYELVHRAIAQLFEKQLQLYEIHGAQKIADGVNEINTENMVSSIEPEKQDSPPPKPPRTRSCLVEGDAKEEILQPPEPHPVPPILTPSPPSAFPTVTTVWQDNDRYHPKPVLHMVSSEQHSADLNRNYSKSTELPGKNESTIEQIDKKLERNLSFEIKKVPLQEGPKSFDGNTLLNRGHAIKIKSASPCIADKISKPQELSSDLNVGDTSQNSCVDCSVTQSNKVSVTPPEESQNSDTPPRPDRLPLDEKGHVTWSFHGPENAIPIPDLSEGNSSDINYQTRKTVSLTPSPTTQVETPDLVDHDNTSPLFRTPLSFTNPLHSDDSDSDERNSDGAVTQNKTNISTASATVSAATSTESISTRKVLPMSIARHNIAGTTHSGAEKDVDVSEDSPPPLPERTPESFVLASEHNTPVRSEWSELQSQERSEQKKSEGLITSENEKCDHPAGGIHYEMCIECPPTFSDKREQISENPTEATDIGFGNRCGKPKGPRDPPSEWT
Mu-type opioid receptor, sequence (P35372 whole entry): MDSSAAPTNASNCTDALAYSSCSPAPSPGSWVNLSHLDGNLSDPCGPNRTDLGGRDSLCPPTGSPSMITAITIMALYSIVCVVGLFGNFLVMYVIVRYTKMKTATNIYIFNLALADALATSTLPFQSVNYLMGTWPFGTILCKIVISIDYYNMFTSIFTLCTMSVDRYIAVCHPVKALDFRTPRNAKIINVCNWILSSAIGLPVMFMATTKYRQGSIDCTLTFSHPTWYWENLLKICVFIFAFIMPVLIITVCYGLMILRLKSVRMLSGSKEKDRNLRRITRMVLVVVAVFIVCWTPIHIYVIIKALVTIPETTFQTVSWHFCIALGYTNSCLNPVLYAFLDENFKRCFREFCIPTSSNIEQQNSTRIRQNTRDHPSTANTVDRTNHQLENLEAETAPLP

Regarding `O=C(CCN1C(=O)/C(=C/c2ccco2)SC1=S)Nc1ccc(C(=O)O)c(O)c1`, the IC50 is 1.46 µM (active) in [1], 56.1 µM (active) in experiment [2] and 14.3 µM (active) in experiment [3]. The EC50 in [4] was 66.2 µM (active); in experiment [5] it was 7.32 µM (active); in experiment [6] it was 84.9 µM (active).
Regarding `N#Cc1ccc(CSc2nnc(-c3ccccn3)n2Cc2cccs2)cc1`, the EC50 in [7] was 3.52 µM (active); in experiment [8], > 32 µM (inactive); in [9], > 64 µM (inactive); in experiment [10], 4.64 µM (active).
For the molecule `COc1cc(/C=C(\C#N)c2ccc(F)cc2)ccc1OCc1ccc(C(=O)O)cc1`, the IC50 in [11] was 33.9 µM (active); in [12], 22.1 µM (active); in experiment [13] it was 94.2 µM (active); in experiment [14], 7.01 µM (active); in [15], 61.2 µM (active); in experiment [16], 59.2 µM (active). In addition, the IC50 in [17] was > 100 µM (inactive); in experiment [18] it was 35.5 µM (active).

Broadly, the IC50 is the midpoint of a concentration-inhibition curve. One may read the EC50 as the concentration needed to bring the measured effect to its halfway point.
